The values below come from paper PMC7052197 (Scientific Reports, 2020).

Ends that are not written are not given here.

The target of one assay is αCtx (Naja kaouthia, UniProt P01391). Kind of assay: biochemical. The format is binding.
In another assay the target is αBgt (Bungarus multicinctus, UniProt P60615). Kind of assay: biochemical. Format: binding.
αBgt, sequence (P60615 22-95 limits assumed): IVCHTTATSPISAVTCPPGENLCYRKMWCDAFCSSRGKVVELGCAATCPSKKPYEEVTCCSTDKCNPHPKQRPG

αCtx, sequence (P01391 whole entry, looked up): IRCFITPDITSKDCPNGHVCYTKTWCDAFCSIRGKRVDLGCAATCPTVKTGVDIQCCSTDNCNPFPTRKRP

Broadly, the Kd is the concentration at which binding is half-saturated. Higher therefore signals lower affinity. In the case of WRYYESSLEPYPD [HAP[L9E]], the Kd at αCtx was 7000 ± 1000 nM; on αBgt it was 91 ± 33 nM.
The corresponding values for WRYYESSLLPYPD [HAP] are over 10000 nM and 29 ± 8 nM.
